Molecules are shown by their SMILES. Bounds are passed on as bounds.

For one experiment, the target named is Histone deacetylase 3 (Homo sapiens, UniProt O15379). The experiment is described as follows: Inhibition of full length His6-tagged GST-fused recombinant human HDAC3 expressed in High5 insect cells using Ac-Lys-Tyr-Lys (e-acetyl)-AMC as substrate after 24 hrs by fluorescence assay. The class given is cell-based.
Another experiment deals with Histone deacetylase 1 (Homo sapiens, UniProt Q13547). In words: Inhibition of full length His6-tagged GST-fused recombinant human HDAC1 expressed in High5 insect cells using Ac-Lys-Tyr-Lys (e-acetyl)-AMC as substrate after 24 hrs by fluorescence assay. The experiment is classed as cell-based.
The target in another experiment is Histone deacetylase 4 (Homo sapiens, UniProt P56524). In words: Inhibition of full length His6-tagged GST-fused recombinant human HDAC4 expressed in High5 insect cells using Ac-Lys-Tyr-Lys (e-acetyl)-AMC as substrate after 24 hrs by fluorescence assay. The class given is cell-based.
Experiment [1] deals with T1, Protein deacetylase HDAC6 (Homo sapiens, UniProt Q9UBN7).
T1 sequence (Q9UBN7 whole entry): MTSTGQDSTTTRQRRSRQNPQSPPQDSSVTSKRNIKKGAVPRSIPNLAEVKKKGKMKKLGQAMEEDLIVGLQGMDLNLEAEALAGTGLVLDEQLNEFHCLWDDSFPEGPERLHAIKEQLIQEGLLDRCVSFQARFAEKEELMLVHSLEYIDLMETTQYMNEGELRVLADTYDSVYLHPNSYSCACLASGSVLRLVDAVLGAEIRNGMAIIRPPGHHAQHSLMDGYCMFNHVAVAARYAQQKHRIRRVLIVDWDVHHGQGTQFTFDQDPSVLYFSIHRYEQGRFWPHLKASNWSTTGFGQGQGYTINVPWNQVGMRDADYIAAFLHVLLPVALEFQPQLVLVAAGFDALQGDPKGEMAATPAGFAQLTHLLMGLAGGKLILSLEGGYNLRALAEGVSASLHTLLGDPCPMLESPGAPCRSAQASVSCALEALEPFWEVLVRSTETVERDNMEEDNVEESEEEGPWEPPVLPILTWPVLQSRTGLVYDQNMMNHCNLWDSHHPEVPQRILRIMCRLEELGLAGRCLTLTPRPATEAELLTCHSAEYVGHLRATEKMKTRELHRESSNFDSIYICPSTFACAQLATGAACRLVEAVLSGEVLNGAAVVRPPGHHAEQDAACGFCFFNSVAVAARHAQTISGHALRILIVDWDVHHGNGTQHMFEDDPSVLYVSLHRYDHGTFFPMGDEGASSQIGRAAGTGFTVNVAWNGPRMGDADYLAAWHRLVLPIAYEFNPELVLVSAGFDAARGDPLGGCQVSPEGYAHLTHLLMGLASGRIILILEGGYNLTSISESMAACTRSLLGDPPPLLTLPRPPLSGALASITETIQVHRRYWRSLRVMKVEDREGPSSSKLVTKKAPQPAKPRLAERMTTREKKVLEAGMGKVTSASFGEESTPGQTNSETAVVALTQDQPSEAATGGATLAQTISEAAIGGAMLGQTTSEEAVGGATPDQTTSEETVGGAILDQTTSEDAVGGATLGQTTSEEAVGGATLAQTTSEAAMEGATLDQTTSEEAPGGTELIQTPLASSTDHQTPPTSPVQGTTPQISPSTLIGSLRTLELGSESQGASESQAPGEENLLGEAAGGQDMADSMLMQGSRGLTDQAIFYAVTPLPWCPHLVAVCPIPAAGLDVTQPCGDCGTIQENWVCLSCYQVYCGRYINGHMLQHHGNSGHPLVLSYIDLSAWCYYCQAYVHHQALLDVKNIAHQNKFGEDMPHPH
In words: Inhibition of full length His6-tagged GST-fused recombinant human HDAC6 expressed in High5 insect cells using Boc-Lys (e-acetyl)-AMC as substrate after 3 hrs by fluorescence assay. The experiment is classed as cell-based.

Experiment [2] deals with RPMI-8226. In words: Induction of apoptosis in human RPMI8226 cells assessed as viable cells at 1 uM after 48 hrs by annexin V-FITC/propidium iodide staining-based flow cytometry (reference value: 87.2%). The experiment is classed as functional. As to conditions: RPMI-8226, 48 h, read-out: Activity. On the technique in general: Flow cytometry measures light scatter and fluorescence of single cells or particles in a stream.

The nature of experiment [3]: Antiproliferative activity against human Mino cells after 72 hrs by CellTiter 96 aqueous non-radioactive cell proliferation assay. The experiment is classed as functional, cell-based.
Experiment [4] has as its system RPMI-8226. The experiment is described as follows: Induction of apoptosis in human RPMI8226 cells assessed as late apoptotic cells at 1 uM after 48 hrs by annexin V-FITC/propidium iodide staining-based flow cytometry (reference value: 4.4%). The experiment is classed as functional.
Experiment [5] in a line: Antiproliferative activity against human MM1S cells after 72 hrs by CellTiter 96 aqueous non-radioactive cell proliferation assay. As to conditions: MM1.S. The class given is functional, cell-based.
Experiment [6] relates to RPMI-8226. In words: Induction of apoptosis in human RPMI8226 cells assessed as viable cells at 0.3 uM after 48 hrs by annexin V-FITC/propidium iodide staining-based flow cytometry (reference value: 87.2%). The class given is functional. As to conditions: RPMI-8226, 48 h, read-out: Activity.
The subject of experiment [7] is RPMI-8226. In words: Induction of apoptosis in human RPMI8226 cells assessed as dead cells at 1 uM after 48 hrs by annexin V-FITC/propidium iodide staining-based flow cytometry (reference value: 2%). The class given is functional.
Experiment [8] relates to RPMI-8226. In words: Induction of apoptosis in human RPMI8226 cells assessed as dead cells at 0.3 uM after 48 hrs by annexin V-FITC/propidium iodide staining-based flow cytometry (reference value: 2%). The experiment is classed as functional.
Experiment [9] is described as follows: Antiproliferative activity against human JeKo1 cells after 72 hrs by CellTiter 96 aqueous non-radioactive cell proliferation assay. The experiment is classed as functional, cell-based. As to conditions: JeKo-1, 72 h.
Experiment [10] is described as follows: Antiproliferative activity against human NCI-H929 cells after 72 hrs by CellTiter 96 aqueous non-radioactive cell proliferation assay. The experiment is classed as functional, cell-based. As to conditions: NCI-H929, 72 h.
Experiment [11] has as its system RPMI-8226. The experiment is described as follows: Induction of apoptosis in human RPMI8226 cells assessed as early apoptotic cells at 0.3 uM after 48 hrs by annexin V-FITC/propidium iodide staining-based flow cytometry (reference value: 6.3%). The experiment is classed as functional.
In experiment [12] the test system is RPMI-8226. The experiment is described as follows: cells. The experiment is classed as functional. As to conditions: Homo sapiens, RPMI-8226, 48 h.
Experiment [13] concerns RPMI-8226. The experiment is described as follows: Induction of apoptosis in human RPMI8226 cells assessed as early apoptotic cells at 1 uM after 48 hrs by annexin V-FITC/propidium iodide staining-based flow cytometry (reference value: 6.3%). The class given is functional.
Experiment [14] relates to RPMI-8226. The experiment is described as follows: Induction of apoptosis in human RPMI8226 cells assessed as increase in cleaved PARP level after 24 hrs by Western immunoblotting method. The class given is functional, cell-based. (In general: Immunoblotting shows a protein as a band on a membrane.)
For the next experiment, the system named is LP-1. In words: Antiproliferative activity against human LP-1 cells after 72 hrs by CellTiter 96 aqueous non-radioactive cell proliferation assay. The class given is functional, cell-based. As to conditions: LP-1, 72 h.
Experiment [15] in a line: Antiproliferative activity against human RPMI8226 cells after 72 hrs by CellTiter 96 aqueous non-radioactive cell proliferation assay. The class given is functional, cell-based. As to conditions: RPMI-8226, 72 h.
Experiment [16] has as its system RPMI-8226. In words: Induction of apoptosis in human RPMI8226 cells assessed as late apoptotic cells at 0.3 uM after 48 hrs by annexin V-FITC/propidium iodide staining-based flow cytometry (reference value: 4.4%). The experiment is classed as functional.

Chain of Histone deacetylase 4 (P56524 whole entry, the tested form may be a part): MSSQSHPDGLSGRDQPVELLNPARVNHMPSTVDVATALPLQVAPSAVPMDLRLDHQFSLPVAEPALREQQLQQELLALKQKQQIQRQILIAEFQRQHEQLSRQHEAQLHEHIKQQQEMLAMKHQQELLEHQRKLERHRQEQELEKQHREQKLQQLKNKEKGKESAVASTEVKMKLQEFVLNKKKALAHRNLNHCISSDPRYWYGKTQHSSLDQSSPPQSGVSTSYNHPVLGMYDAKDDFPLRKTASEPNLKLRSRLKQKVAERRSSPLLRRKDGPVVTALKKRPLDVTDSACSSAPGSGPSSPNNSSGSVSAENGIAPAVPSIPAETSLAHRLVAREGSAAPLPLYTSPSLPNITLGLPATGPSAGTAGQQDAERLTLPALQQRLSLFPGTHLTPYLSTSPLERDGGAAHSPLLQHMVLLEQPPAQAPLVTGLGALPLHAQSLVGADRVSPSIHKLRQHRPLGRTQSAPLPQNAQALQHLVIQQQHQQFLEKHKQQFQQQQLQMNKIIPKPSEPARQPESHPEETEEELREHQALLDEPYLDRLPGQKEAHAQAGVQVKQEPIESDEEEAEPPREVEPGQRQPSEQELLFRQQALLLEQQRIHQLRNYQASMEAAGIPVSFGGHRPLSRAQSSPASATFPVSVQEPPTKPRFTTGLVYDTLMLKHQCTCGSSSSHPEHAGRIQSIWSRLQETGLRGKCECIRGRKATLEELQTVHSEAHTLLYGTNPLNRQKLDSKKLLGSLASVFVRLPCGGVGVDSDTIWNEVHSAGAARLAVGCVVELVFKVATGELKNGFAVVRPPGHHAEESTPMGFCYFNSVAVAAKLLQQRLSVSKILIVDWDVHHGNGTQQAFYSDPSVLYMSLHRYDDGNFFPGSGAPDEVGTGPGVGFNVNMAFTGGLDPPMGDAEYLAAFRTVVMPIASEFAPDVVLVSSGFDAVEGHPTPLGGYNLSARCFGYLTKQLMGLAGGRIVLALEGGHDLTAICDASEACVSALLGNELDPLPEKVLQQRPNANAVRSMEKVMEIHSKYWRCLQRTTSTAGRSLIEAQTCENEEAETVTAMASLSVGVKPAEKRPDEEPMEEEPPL
Chain of Histone deacetylase 1 (Q13547 whole entry, the tested form may be a part): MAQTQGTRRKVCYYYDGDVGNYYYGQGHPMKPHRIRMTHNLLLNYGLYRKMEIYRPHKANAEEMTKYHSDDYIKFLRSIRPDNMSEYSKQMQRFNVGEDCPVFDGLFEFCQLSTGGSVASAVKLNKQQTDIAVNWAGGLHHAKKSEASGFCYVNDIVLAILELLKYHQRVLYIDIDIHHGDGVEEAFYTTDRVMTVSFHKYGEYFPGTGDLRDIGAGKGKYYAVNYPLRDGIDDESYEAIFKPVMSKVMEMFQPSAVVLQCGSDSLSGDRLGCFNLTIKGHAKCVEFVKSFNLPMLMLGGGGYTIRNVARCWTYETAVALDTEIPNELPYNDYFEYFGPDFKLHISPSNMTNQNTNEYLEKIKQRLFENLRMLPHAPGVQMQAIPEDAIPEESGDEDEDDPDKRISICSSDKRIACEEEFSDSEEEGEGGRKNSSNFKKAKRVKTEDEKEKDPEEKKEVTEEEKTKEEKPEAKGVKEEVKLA
Chain of Histone deacetylase 3 (O15379 whole entry, the tested form may be a part): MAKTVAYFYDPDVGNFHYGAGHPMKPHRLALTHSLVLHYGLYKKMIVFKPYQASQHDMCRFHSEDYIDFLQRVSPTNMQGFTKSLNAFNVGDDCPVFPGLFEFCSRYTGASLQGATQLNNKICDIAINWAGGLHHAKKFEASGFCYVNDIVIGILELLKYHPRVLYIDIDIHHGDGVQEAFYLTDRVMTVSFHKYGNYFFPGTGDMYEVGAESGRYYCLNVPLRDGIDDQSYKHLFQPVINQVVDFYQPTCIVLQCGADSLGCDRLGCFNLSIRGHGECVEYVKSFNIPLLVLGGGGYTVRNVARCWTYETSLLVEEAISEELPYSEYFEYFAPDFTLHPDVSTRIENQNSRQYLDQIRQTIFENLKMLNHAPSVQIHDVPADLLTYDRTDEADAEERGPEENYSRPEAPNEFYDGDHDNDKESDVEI

A word on the IC50: it is the midpoint of a concentration-inhibition curve. On to `O=C(NCCCCCNC(=O)c1nc(-c2nccs2)sc1C1CC1)c1cccc(-c2noc(C(F)(F)F)n2)c1`, for which the half-maximal inhibitory concentration (IC50) (at Histone deacetylase 3; on Histone deacetylase 1; at Histone deacetylase 4; in experiment [1]) was > 10000 nM in each case.

Regarding `O=C(NCCCCC(=O)C(F)(F)F)c1nc(-c2nccs2)sc1Cc1ccccc1`, the IC50 at Histone deacetylase 3 amounted to 65.1 nM; at Histone deacetylase 1 it was 66.1 nM; on Histone deacetylase 4, 68.2 nM; in experiment [1] it was 58.4 nM.

In the case of `O=C(NO)NCCCCNC(=O)c1nc(-c2nccs2)sc1C1CC1`, the IC50 at Histone deacetylase 4 is > 10000 nM.

In the case of `O=C(NCCCCC(O)C(F)(F)F)c1nc(-c2nccs2)sc1C1CC1` (stereo not drawn), the IC50 on Histone deacetylase 3 is 8860 nM; at Histone deacetylase 1, > 10000 nM; on Histone deacetylase 4 it was > 10000 nM; in experiment [1] it was > 10000 nM.

`O=C(NCCCCCC(=O)C(F)(F)F)c1nc(-c2nccs2)sc1C1CC1`: the IC50 at Histone deacetylase 4 is 133 nM.

In the case of `O=C(NCCCCC(=O)C(F)(F)F)c1nc(-c2nccs2)sc1C1CC1`, the viability at 1 µM with RPMI-8226 [2] was found to be 28.2%. Besides, the IC50 came to 120 nM in [3]; 390 nM in [5]; 31.5 nM at Histone deacetylase 4; 64 nM in [9]; 1230 nM in experiment [10]; 370 nM in the experiment on LP-1. Moreover, the IC50 in experiment [15] came out at 85 nM. Also, the Activity with RPMI-8226 [4] is 50.7%; with RPMI-8226 [7] it was 7.7%; in the experiment with RPMI-8226 [8], 2.8%; in the experiment with RPMI-8226 [11], 15.4%; in the experiment on RPMI-8226 [13], 13.4%; in the experiment with RPMI-8226 [14], “Dose-dependent effect”. The Activity in the experiment on RPMI-8226 [16] was found to be 23.9%. For the same molecule, in the experiment on RPMI-8226 [6], the viability at 0.3 µM was 57.8%. Moreover, the viability at 3 µM in the experiment with RPMI-8226 [12] stood at 21.1%.

With `CC(C)Cc1sc(-c2nccs2)nc1C(=O)NCCCCC(=O)C(F)(F)F`, the IC50 on Histone deacetylase 4 was 120 nM.

Consider `O=C(NCCCCC(=O)C(F)(F)F)c1nc(-c2nc3c(s2)CCCC3)sc1C1CC1`, for which the IC50 on Histone deacetylase 4 was found to be 23.4 nM.

Turning to `Nc1ccccc1NC(=O)CCCCNC(=O)c1nc(-c2nccs2)sc1C1CC1`, the IC50 on Histone deacetylase 4 was 2090 nM.

Consider `O=C(NCCCC(=O)C(F)(F)F)c1nc(-c2nccs2)sc1C1CC1`, for which the half-maximal inhibitory concentration (IC50) at Histone deacetylase 4 was > 10000 nM.

`Cc1cnc(-c2nc(C(=O)NCCCCC(=O)C(F)(F)F)c(C3CC3)s2)s1`: the IC50 on Histone deacetylase 4 amounted to 32 nM; in experiment [1], 23.4 nM.

Regarding `O=C(CCCCCCC(=O)Nc1ccccc1)NO` [VORINOSTAT], in [5], the IC50 came to 820 nM.

Source of the values: ChEMBL document CHEMBL3769309, “Design, synthesis and biological evaluation of bisthiazole-based trifluoromethyl ketone derivatives as potent HDAC inhibitors with improved cellular efficacy” (Eur J Med Chem, 2016).
